Assay results reported in PubChem BioAssay AID330 (DTP/NCI, 2004).
“And” between values parts separate entries of the source, which are not always exact repeats. Identical values can stand only once. Toxic doses and inconclusive results are not listed. Rule for the calls: active = survival T/C of 150% or more; inactive = T/C below 125% in these data.

Test system: P388 leukemia ip, CD2F1 mice, survival T/C
Assay: NCI In Vivo Anticancer Drug Screen. Data for tumor model P388 Leukemia (intraperitoneal) in CD2F1 (CDF1) mice
Conditions: endpoint: median survival time, higher = longer survival
Outline: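 Mice carrying the transplanted tumor received test compound or vehicle. Survival was recorded in each group, and the value is the treated-group measurement divided by that of the vehicle-treated control group.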

[1] = dose: 50.0 mg/kg/injection, schedule: Q01DX009 (ip), vehicle: Klucel (hydroxypropylcellulose) (HPC)
[2] = dose: 100.0 mg/kg/injection, schedule: Q01DX009 (ip), vehicle: Klucel (hydroxypropylcellulose) (HPC)
[3] = dose: 200.0 mg/kg/injection, schedule: Q01DX009 (ip), vehicle: Klucel (hydroxypropylcellulose) (HPC)
[4] = dose: 25.0 mg/kg/injection, schedule: Q04DX002 (ip), vehicle: saline with Tween-80
[5] = dose: 50.0 mg/kg/injection, schedule: Q04DX002 (ip), vehicle: saline with Tween-80
[6] = dose: 100.0 mg/kg/injection, schedule: Q04DX002 (ip), vehicle: saline with Tween-80
[7] = dose: 50.0 mg/kg/injection, schedule: Q01DX009 (ip), vehicle: saline
[8] = dose: 100.0 mg/kg/injection, schedule: Q04DX003 (ip), vehicle: saline with Tween-80
[9] = dose: 200.0 mg/kg/injection, schedule: Q04DX003 (ip), vehicle: saline with Tween-80
[10] = dose: 50.0 mg/kg/injection, schedule: Q01DX009 (ip), vehicle: saline with Tween-80
[11] = dose: 100.0 mg/kg/injection, schedule: Q01DX009 (ip), vehicle: saline with Tween-80
[12] = dose: 200.0 mg/kg/injection, schedule: Q01DX009 (ip), vehicle: saline with Tween-80

Measured: T/C

Oc1cccc2ccccc12
inactive: dose: 25.0 mg/kg/injection, schedule: Q01DX005 (ip), vehicle: water 100 % of control | dose: 50.0 mg/kg/injection, schedule: Q01DX005 (ip), vehicle: water 101 % of control | dose: 100.0 mg/kg/injection, schedule: Q01DX005 (ip), vehicle: water 111 % of control | dose: 200.0 mg/kg/injection, schedule: Q01DX005 (ip), vehicle: water 104 % of control | dose: 400.0 mg/kg/injection, schedule: Q01DX005 (ip), vehicle: water 93 % of control

O=c1c2cc(Cl)ccc2nc2n1OCC2
inactive: [1] 94 % of control | [2] 112 % of control | [3] 104 % of control

COc1cc2c(cc1OC)-c1cccc3c1N(CC2)CC3
inactive: [4] 100 % of control | [5] 98 % of control | [6] 100 % of control

C=CCC(CCC)(C(=O)Nc1ccc2nc(C)cc(N)c2c1)C(=O)Nc1ccc2nc(C)cc(N)c2c1
inactive: dose: 50.0 mg/kg/injection, schedule: Q01DX005 (ip), vehicle: saline with Tween-80 100 % of control | dose: 100.0 mg/kg/injection, schedule: Q01DX005 (ip), vehicle: saline with Tween-80 93 % of control

CC(C)CC(N)C(=O)O (stereo unspecified)
inactive: [1] 105 % of control | [2] 105 % of control | [3] 94 % of control

COC(=O)c1ncn(Cc2ccccc2)c1N
inactive: [4] 101 % of control | [5] 91 % of control | [6] 104 % of control and 93 % of control

Cc1cccc(Cl)c1NC(=O)C(C)N1CCCC1 (stereo unspecified)
inactive: dose: 12.5 mg/kg/injection, schedule: Q01DX009 (ip), vehicle: saline 100 % of control | dose: 25.0 mg/kg/injection, schedule: Q01DX009 (ip), vehicle: saline 90 % of control | [7] 109 % of control

C=C(CO)C(=O)OC1CC(=C)C2CC(O)C(=C)C2C2OC(=O)C(=C)C12 (stereo unspecified)
inactive: dose: 100.0 mg/kg/injection, schedule: Q01DX001 (ip), vehicle: saline 113 % of control | dose: 200.0 mg/kg/injection, schedule: Q01DX001 (ip), vehicle: saline 99 % of control | dose: 400.0 mg/kg/injection, schedule: Q01DX001 (ip), vehicle: saline 104 % of control

CCn1c(=O)c2n[nH]nc2n(CCCl)c1=O
inactive: [1] 101 % of control | [2] 103 % of control | [3] 96 % of control

Cc1ccc(/C2=C(\c3ccc(C)cc3)N(c3ccc(C)cc3)CCCCN2c2ccc(C)cc2)cc1
inactive: dose: 100.0 mg/kg/injection, schedule: Q01DX001 (ip), vehicle: Klucel (hydroxypropylcellulose) (HPC) 92 % of control | dose: 200.0 mg/kg/injection, schedule: Q01DX001 (ip), vehicle: Klucel (hydroxypropylcellulose) (HPC) 87 % of control | dose: 400.0 mg/kg/injection, schedule: Q01DX001 (ip), vehicle: Klucel (hydroxypropylcellulose) (HPC) 92 % of control

Cc1c2ccncc2c(C)c2c1[nH]c1ccc(-c3ccccc3)cc12
inactive: dose: 20.0 mg/kg/injection, schedule: Q01DX001 (ip), vehicle: saline with Tween-80 102 % of control | dose: 40.0 mg/kg/injection, schedule: Q01DX001 (ip), vehicle: saline with Tween-80 100 % of control | dose: 80.0 mg/kg/injection, schedule: Q01DX001 (ip), vehicle: saline with Tween-80 99 % of control

CC[n+]1c(-c2ccccc2)c2cc(N)ccc2c2ccc(N)cc21 (tested in a mixture with another compound)
inactive: dose: 5.0 mg/kg/injection, schedule: Q01DX005 (ip), vehicle: other 102 % of control | dose: 10.0 mg/kg/injection, schedule: Q01DX005 (ip), vehicle: other 112 % of control | dose: 20.0 mg/kg/injection, schedule: Q01DX005 (ip), vehicle: other 102 % of control | dose: 40.0 mg/kg/injection, schedule: Q01DX005 (ip), vehicle: other 109 % of control | dose: 80.0 mg/kg/injection, schedule: Q01DX005 (ip), vehicle: other 119 % of control

C=CCNc1ccc(OC)cc1
inactive: dose: 50.0 mg/kg/injection, schedule: Q04DX003 (ip), vehicle: saline with Tween-80 100 % of control | [8] 100 % of control | [9] 100 % of control

CN1C=CC2C(C(=O)O)CC2C1=O (stereo unspecified)
inactive: dose: 100.0 mg/kg/injection, schedule: Q04DX002 (ip), vehicle: saline 99 % of control | dose: 200.0 mg/kg/injection, schedule: Q04DX002 (ip), vehicle: saline 115 % of control | dose: 400.0 mg/kg/injection, schedule: Q04DX002 (ip), vehicle: saline 109 % of control

CCCCCCOC(=O)c1ccc(I)cc1
inactive: [10] 97 % of control | [11] 93 % of control | [12] 100 % of control

O=P(c1ccccc1)(c1ccccc1)c1ccccc1.O=P(c1ccccc1)(c1ccccc1)c1ccccc1.O=P(c1ccccc1)(c1ccccc1)c1ccccc1.O=P(c1ccccc1)(c1ccccc1)c1ccccc1.[Fe+3].[O-][Cl+3]([O-])([O-])O
inactive: [8] 97 % of control | [9] 93 % of control

Cc1ccc2ccc(N(C)C)cc2n1
inactive: [10] 100 % of control | [11] 107 % of control

COn1nnc2ccccc21
inactive: [10] 99 % of control | [11] 104 % of control | [12] 92 % of control

CCOc1ccc(C(/C(Cl)=N/O)C(Cl)(Cl)Cl)cc1 (stereo unspecified)
inactive: dose: 12.5 mg/kg/injection, schedule: Q01DX005 (ip), vehicle: Klucel (hydroxypropylcellulose) (HPC) 96 % of control | dose: 25.0 mg/kg/injection, schedule: Q01DX005 (ip), vehicle: Klucel (hydroxypropylcellulose) (HPC) 91 % of control | dose: 50.0 mg/kg/injection, schedule: Q01DX005 (ip), vehicle: Klucel (hydroxypropylcellulose) (HPC) 100 % of control

N#CC1(NO)CCCC1
inactive: [7] 94 % of control | dose: 100.0 mg/kg/injection, schedule: Q01DX009 (ip), vehicle: saline 98 % of control | dose: 200.0 mg/kg/injection, schedule: Q01DX009 (ip), vehicle: saline 89 % of control

COc1ccc(/C=C2/C(=O)ON=C2C)cc1
inactive: dose: 60.0 mg/kg/injection, schedule: Q01DX005 (ip), vehicle: saline with Tween-80 108 % of control | dose: 120.0 mg/kg/injection, schedule: Q01DX005 (ip), vehicle: saline with Tween-80 110 % of control | dose: 240.0 mg/kg/injection, schedule: Q01DX005 (ip), vehicle: saline with Tween-80 109 % of control

CSCC1(CCO)OCCO1
inactive: dose: 25.0 mg/kg/injection, schedule: Q01DX009 (ip), vehicle: saline with Tween-80 100 % of control | [10] 94 % of control | [11] 94 % of control

O=c1ncc(F)cn1C1OC(CO)C(O)C1O (stereo unspecified)
inactive: dose: 1.5 mg/kg/injection, schedule: Q01DX009 (ip), vehicle: Klucel (hydroxypropylcellulose) (HPC) 106 % of control | dose: 3.0 mg/kg/injection, schedule: Q01DX009 (ip), vehicle: Klucel (hydroxypropylcellulose) (HPC) 87 % of control | dose: 6.0 mg/kg/injection, schedule: Q01DX009 (ip), vehicle: Klucel (hydroxypropylcellulose) (HPC) 86 % of control

Cc1cc(N(C)C)ccc1/C=C/c1ccnc2ccccc12
inactive: [4] 109 % of control | [5] 118 % of control | [6] 113 % of control

CCn1nc(C(=O)O)c(=O)c2cc3c(cc21)OCO3
inactive: [1] 96 % of control | [2] 97 % of control | [3] 98 % of control

CS(C)(O)NC(N)=O
inactive: dose: 50.0 mg/kg/injection, schedule: Q01DX005 (ip), vehicle: DMSO 121 % of control | dose: 100.0 mg/kg/injection, schedule: Q01DX005 (ip), vehicle: DMSO 119 % of control | dose: 100.0 mg/kg/injection, schedule: Q01DX005 (ip), vehicle: other 121 % of control | dose: 200.0 mg/kg/injection, schedule: Q01DX005 (ip), vehicle: DMSO 114 % of control | dose: 400.0 mg/kg/injection, schedule: Q01DX005 (ip), vehicle: DMSO 124 % of control
